Source: patent publication US8956824B2, “Methods for identifying allosteric modulators of ship polypeptides” (British Columbia Cancer Agency Branch, priority 2006, dated 2015)
“Also recorded” adds a separate entry of the source.

Legend:
[1] = test system: DNFB-induced ear inflammation; test: Mouse acute cutaneous anaphylaxis model; assay type: in vivo; conditions: topical
Protocol: Mouse acute cutaneous anaphylaxis model. 6-8 week old CD1 mice (University of British Columbia Animal Facility, Vancouver, BC) were sensitized to the hapten DNP by cutaneous application of 25 μL of 0.5% dinitroflourobenzene (DNFB) (Sigma, Oakville, Ont) in acetone to the shaved abdomen of mice for two consecutive days. In the AQX-016A experiments shown in FIG. 2F, 20 μCi of tritiated thymidine [3H]-Tdr (GE Healthcare, Piscataway, N.J.) was injected EP one week after the first DNFB application. [3H]-Tdr labels rapidly dividing cells of the mouse, including neutrophils (21). […] The resulting inflammatory cell infiltration was quantitated by taking a 6mm diameter punch from the ear 1 hr later for dissolution in SOLVABLE™ (Perkin Elmer-Packard, Woodbridge, Ont) and liquid scintillation counting as described (21). The ability of test substances to inhibit mast cell degranulation was then determined by calculating the ratio of [3H]-Tdr in the test (right) ear vs the control (left) ear as described (21). […]
In the later AQX-MN100 experiments, shown in FIG. 3E, the mice were sensitized as above with DNFB. […] Optical density readings at 450 nm were taken over 10 min at 30 s intervals. MPO activity was calculated as described (22) and expressed as Units per mg of protein per mL of lysate. […]

LNCaP cells = test: PKB phosphorylation in LNCaP cells; assay type: cell-based; conditions: 30 min treatment; cells do not express SHIP1
Protocol: The non-hemopoietic, prostate cancer LnCAP cell line was treated with AQX-016A or LY294002 for 30 min and cell lysates analyzed for phospho-PKB-Thr 308 or phospho-PKB 473 as described in the Examples. AQX-016A (Molecular Weight 328.24) concentration is indicated in μM.

wild-type SHIP1 enzyme = biological target: T1, wild-type SHIP1 enzyme (Mus musculus, UniProt Q9ES52); test: Scintillation proximity assay, wild-type SHIP1; assay type: binding; conditions: 5 μCi
T1 construct: Full length, wild-type SHIP1 enzyme (wt); made in house; host or cells: 293T cells, transient transfection with pME18S-His-SHIP
T1 sequence (Q9ES52 1-1191): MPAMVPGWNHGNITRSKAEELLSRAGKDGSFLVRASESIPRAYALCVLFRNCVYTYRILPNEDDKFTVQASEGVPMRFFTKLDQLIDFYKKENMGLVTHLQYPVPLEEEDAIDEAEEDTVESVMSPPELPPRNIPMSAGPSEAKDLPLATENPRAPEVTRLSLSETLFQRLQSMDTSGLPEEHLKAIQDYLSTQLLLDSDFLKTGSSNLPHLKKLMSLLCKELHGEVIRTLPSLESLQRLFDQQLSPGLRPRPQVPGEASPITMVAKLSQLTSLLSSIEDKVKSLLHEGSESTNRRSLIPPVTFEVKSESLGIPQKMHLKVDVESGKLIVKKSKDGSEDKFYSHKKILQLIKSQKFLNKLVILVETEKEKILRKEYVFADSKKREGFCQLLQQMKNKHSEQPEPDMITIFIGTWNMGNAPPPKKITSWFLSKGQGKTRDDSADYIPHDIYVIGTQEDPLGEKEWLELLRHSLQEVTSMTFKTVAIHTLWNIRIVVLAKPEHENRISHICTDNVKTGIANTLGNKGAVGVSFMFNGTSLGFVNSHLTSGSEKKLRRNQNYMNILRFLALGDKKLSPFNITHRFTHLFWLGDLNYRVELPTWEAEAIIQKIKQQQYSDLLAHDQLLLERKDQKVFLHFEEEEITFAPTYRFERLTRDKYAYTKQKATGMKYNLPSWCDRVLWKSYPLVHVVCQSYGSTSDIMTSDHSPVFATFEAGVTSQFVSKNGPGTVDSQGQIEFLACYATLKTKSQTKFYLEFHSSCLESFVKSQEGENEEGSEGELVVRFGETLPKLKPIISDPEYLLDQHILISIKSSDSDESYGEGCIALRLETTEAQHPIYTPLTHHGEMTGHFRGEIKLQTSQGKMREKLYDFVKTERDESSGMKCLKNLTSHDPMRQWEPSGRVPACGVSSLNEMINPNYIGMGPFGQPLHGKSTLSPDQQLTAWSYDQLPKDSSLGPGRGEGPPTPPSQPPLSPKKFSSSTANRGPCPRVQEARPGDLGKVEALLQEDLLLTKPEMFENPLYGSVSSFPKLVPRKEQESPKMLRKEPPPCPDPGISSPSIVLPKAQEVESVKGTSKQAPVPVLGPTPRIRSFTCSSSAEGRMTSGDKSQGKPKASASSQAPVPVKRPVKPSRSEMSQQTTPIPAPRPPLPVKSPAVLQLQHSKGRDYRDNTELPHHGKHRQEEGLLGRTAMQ
Protocol: (§1) Scintillation Proximity Assays AQX-MN100 was radiolabeled with tritium by GE Healthcare (Piscataway, N.J.) to a specific activity of 42 Ci/mmole. Copper chelate (His-Tag) YSi YSi SPA Scintillation Beads (GE Healthcare ,Piscataway, NJ) were diluted in 0.25% BSA/TBS to 1.5 mg/mL and recombinant, His6-tagged protein added at the indicated concentrations: wild-type (1 pM), ΔC2 SHIP enzyme (1 pM) or C2 domain (10 nM). Protein was allowed to bind 1 h at 23° C., and 250 μg of beads were aliquoted per well of a 96-well plate. 5 μCi of [3H]-AQX-MN100 was added per well, the plate gently agitated for 30 min and the amount of bead associated radioactivity quantified by counting in a Wallac BETAPLATE™ plate scintillation counter. Results are representative of 3 independent experiments.

SHIP1 C2 domain = biological target: T2, SHIP1 C2 domain (Mus musculus, UniProt Q9ES52); test: Scintillation proximity assay, C2 domain; assay type: binding; conditions: C2 domain 10 nM, 5 μCi
T2 construct: Recombinant SHIP1 C2 domain (amino acid residues 725 to 863); made in house; host or cells: E. coli, pET28C
T2 sequence (Q9ES52 725-863): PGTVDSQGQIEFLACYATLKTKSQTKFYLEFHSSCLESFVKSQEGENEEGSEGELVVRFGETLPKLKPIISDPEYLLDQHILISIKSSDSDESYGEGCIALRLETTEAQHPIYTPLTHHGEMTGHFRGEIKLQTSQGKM
Protocol: as §1

SMILES	allergen-induced inflammation (inflammatory cell recruitment to ear, [3H]-Tdr) ([1]; 30 min prior to DNFB, vs vehicle control-treated ear)	PKB phosphorylation in LNCaP cells (LNCaP cells)	myeloperoxidase (MPO) levels in ears of allergen-challenged mice ([1]; P-value <0.02 vs vehicle)	binding of [3H]-AQX-MN100 to wild-type SHIP1 (wild-type SHIP1 enzyme)	binding of [3H]-AQX-MN100 to recombinant C2 domain (SHIP1 C2 domain)
Cc1cc(O)c(O)c2c1[C@]1(C)CC[C@H]3C(C)(C)CCC[C@]3(C)[C@H]1C2 [AQX-016A]	dramatically inhibited allergen-induced inflammation	had no effect; also recorded: but not AQX-016A inhibits PKB phosphorylation			
Cc1cc(O)cc2c1[C@]1(C)CC[C@H]3C(C)(C)CCC[C@]3(C)[C@H]1C2 [AQX-MN100]			reduced the levels of the inflammatory cell (neutrophil) specific myeloperoxidase enzyme; also recorded: inhibits DNFB-induced MPO in sensitized mice	binds to wild-type SHIP1	could directly bind; also recorded: reproducibly observed to bound; also recorded: binds
